Source: patent publication US9132084B2, “Methods for administration and formulations for the treatment of regional adipose tissue” (NEOTHETICS, INC., priority 2009, dated 2015)

Assay: Plasma pharmacokinetics following a single intravenous and subcutaneous injection of a combination of formoterol and budesonide
Settings: for AUC(0-inf): AUCinf; for bioavailability: F (bioavailability); for concentration at 0.0333 hr: male 1-0771, 0.0333 hr; for concentration at 0.0833 hr: male 1-0771, 0.0833 hr; for concentration at 0.167 hr: male 1-0771, 0.167 hr; for concentration at 0.333 hr: male 1-0771, 0.333 hr; for concentration at 0.5 hr: male 1-0771, 0.500 hr; for concentration at 0.75 hr: male 1-0771, 0.750 hr; for concentration at 1 hr: male 1-0771, 1.00 hr; for concentration at 2 hr: male 1-0771, 2.00 hr; for concentration at 4 hr: male 1-0771, 4.00 hr; for concentration at 8 hr: male 1-0771, 8.00 hr; for concentration at 24 hr: male 1-0771, 24.0 hr
Method: Formoterol fumarate dehydrate and budesonide were formulated in 2% PEG-400 in saline. 1 male and 1 female non-naive Gottingen minipigs (8 to 12 kg upon receipt per protocol) were utilized. The animals were housed individually.
Each minipig received a single IV injection of the combined formoterol and budesonide formulation followed by testing of the SC doses. Each dose was separated by at least a 3-day washout period. The IV dose was administered by slow bolus (1 minute; 0.017 hr) into the marginal ear vein, whereas the first SC dose was administered as a bolus injection along the back (neck-region) where there was a longitudinal fat depot. The second SC dose was distributed in 5 separate proximal SC injections separated by approximately 2 cm. Blood samples (approximately 4 mL) were collected via the branchiocephalic plexus at pre-dose and at 2, 5, 10, 20, 30 and 45 minutes, and at 1, 2, 4, 8 and 24 hr post-dose. Blood samples were placed in tubes containing K2-EDTA as the anticoagulant. Samples were processed to plasma by centrifugation and stored frozen at approximately −70° C. (+/−15° C.) until shipment for analysis.
Plasma samples were analyzed for formoterol and budesonide using a qualified liquid chromatography/mass spectrometry/mass mass spectrometry (LC/MS/MS) method. The lower limit of quantitation (LLOQ) was 1.00 pg/mL for formoterol and 25.0 pg/mL for budesonide.
Non-compartmental pharmacokinetic parameters were calculated using WinNonlin 5.2 software, NCA model 202, IV infusion input for the IV data and NCA model 200, extravascular input for the SC data. Individual plasma concentrations for each animal were used in the calculation of pharmacokinetic parameters. Nominal collection times and doses were used in the calculations. The area under the plasma concentration-time curve (AUC) was calculated using linear trapezoidal approximation (linear/log interpolation). Concentration values below the assay limit of quantitation were set to zero for calculations. The maximum plasma concentration (Cmax) and the time of its occurrence (Tmax) were verified by inspection. The half-life (t1/2) values were calculated using the last 3 plasma concentrations with nonzero values, if data permitted.

[1] = male, Gottingen, minipig, in vivo, formoterol 0.4 μg/kg SC1 single site, combination, male 1-0771
[2] = male, Gottingen, minipig, in vivo, formoterol 0.4 μg/kg SC5 (5 sites), combination, male 1-0771
[3] = male, Gottingen, minipig, in vivo, Plasma concentration of formoterol, SC1 0.4 μg/kg, combination
[4] = male, Gottingen, minipig, in vivo, Plasma concentration of formoterol, SC5 0.4 μg/kg, combination
[5] = male, Gottingen, minipig, in vivo, iv, 0.4 ug/kg
[6] = male, Gottingen, minipig, in vivo, iv, 0.4 ug/kg, formoterol 0.4 μg/kg IV in combination with budesonide, male 1-0771
[7] = male, Gottingen, minipig, in vivo, iv, Plasma concentration of formoterol, IV 0.4 μg/kg, combination

## COc1ccc(CC(C)NCC(O)c2ccc(O)c(NC=O)c2)cc1 (centres unmarked) [Formoterol, formoterol]
Formoterol 0.4 μg/kg IV in combination with budesonide, male 1-0771
  tlast: 8.00 h
Formoterol 0.4 μg/kg SC1 single site, combination, female 2-0623
  tlast: 8.00 h
Formoterol 0.4 μg/kg SC1 single site, combination, male 1-0771
  tlast: 24.0 h
Formoterol 0.4 μg/kg SC5 (5 sites), combination, female 2-0623
  tlast: 24.0 h
Formoterol 0.4 μg/kg SC5 (5 sites), combination, male 1-0771
  tlast: 24.0 h
Formoterol with budesonide in about 2% PEG-400 in saline
  partition ratio (plasma Cmax subcutaneous / intravenous): 0.5
[1]
  AUC(0-inf): 0.627 ng·h/mL
  Cmax: 0.378 ng/mL
  bioavailability: 238%
  Tmax: 2 min
[2]
  AUC(0-inf): 0.579 ng·h/mL
  Cmax: 0.217 ng/mL
  bioavailability: 219%
  Tmax: 10 min
male, Gottingen, minipig, in vivo, Plasma concentration of formoterol, SC1 0.4 μg/kg, combination, male 1-0771, 0 hr
  concentration at 0 hr: 4.63 pg/mL
[3]
  concentration at 0.0333 hr: 0.378 ng/mL
  concentration at 0.0833 hr: 0.294 ng/mL
  concentration at 0.167 hr: 0.147 ng/mL
  concentration at 0.333 hr: 0.121 ng/mL
  concentration at 0.5 hr: 0.161 ng/mL
  concentration at 0.75 hr: 0.079 ng/mL
  concentration at 1 hr: 0.0833 ng/mL
  concentration at 2 hr: 0.0822 ng/mL
  concentration at 4 hr: 0.0422 ng/mL
  concentration at 8 hr: 0.0152 ng/mL
  concentration at 24 hr: 2.87 pg/mL
[4]
  concentration at 0.0333 hr: 0.133 ng/mL
  concentration at 0.0833 hr: 0.216 ng/mL
  concentration at 0.167 hr: 0.217 ng/mL
  concentration at 0.333 hr: 0.15 ng/mL
  concentration at 0.5 hr: 0.0938 ng/mL
  concentration at 0.75 hr: 0.0941 ng/mL
  concentration at 1 hr: 0.0801 ng/mL
  concentration at 2 hr: 0.0711 ng/mL
  concentration at 4 hr: 0.0359 ng/mL
  concentration at 8 hr: 0.0181 ng/mL
  concentration at 24 hr: 1.3 pg/mL
[5]
  Vd: 3.94 L/kg
  clearance: 25.3 mL/min/kg
[6]
  AUC(0-inf): 0.264 ng·h/mL
  Cmax: 0.41 ng/mL
  Tmax: 2 min
male, Gottingen, minipig, in vivo, iv, 0.4 ug/kg, t1/2, formoterol 0.4 μg/kg IV in combination with budesonide, male 1-0771
  half-life: 152 min
[7]
  concentration at 0.0333 hr: 0.41 ng/mL
  concentration at 0.0833 hr: 0.0996 ng/mL
  concentration at 0.167 hr: 0.0902 ng/mL
  concentration at 0.333 hr: 0.0689 ng/mL
  concentration at 0.5 hr: 0.057 ng/mL
  concentration at 0.75 hr: 0.0488 ng/mL
  concentration at 1 hr: 0.0813 ng/mL
  concentration at 2 hr: 0.0265 ng/mL
  concentration at 4 hr: 0.0183 ng/mL
  concentration at 8 hr: 0.00533 ng/mL
male, Gottingen, minipig, in vivo, t1/2, formoterol 0.4 μg/kg SC1 single site, combination, male 1-0771
  half-life: 331 min
male, Gottingen, minipig, in vivo, t1/2, formoterol 0.4 μg/kg SC5 (5 sites), combination, male 1-0771
  half-life: 251 min
Single site and divided over 5 sites, combination
  absorption after SC administration: well absorbed
